Experimental data reported in paper PMC9465256, “Discovering monoacylglycerol lipase inhibitors by a combination of fluorogenic substrate assay and activity-based protein profiling” (Frontiers in Pharmacology, 2022).

Columns and labels:
Type in all cases: biochemical
[1] = target: T1, human MAGL (Homo sapiens, UniProt Q99685); assay: MAGL activity assay (AA-HNA fluorogenic substrate); details: read-out: MAGL Inhibition (%); for activity at 100 µM / activity: AA-HNA substrate assay, Supplementary Table 1, 100 µM
T1 construct: expressed in transfected cells; host or cells: HEK293T (transient transfection; membrane fraction)
T1 sequence (Q99685 1-303): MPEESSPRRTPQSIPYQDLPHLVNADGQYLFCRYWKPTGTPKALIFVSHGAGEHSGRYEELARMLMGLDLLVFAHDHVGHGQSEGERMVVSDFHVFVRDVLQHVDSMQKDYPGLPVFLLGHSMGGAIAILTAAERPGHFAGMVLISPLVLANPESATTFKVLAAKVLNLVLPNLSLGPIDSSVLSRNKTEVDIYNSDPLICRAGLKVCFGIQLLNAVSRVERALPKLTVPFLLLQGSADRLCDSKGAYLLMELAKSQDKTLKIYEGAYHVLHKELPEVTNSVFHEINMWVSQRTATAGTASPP
Protocol: (§1) HEK293T cells were cultured at 37°C under 5% CO2 in a DMEM medium with stable glutamine and phenolred, containing 10% fetal bovine serum (FBS, Gibco), penicillin, and streptomycin. The cells were passaged every 2–3 days by resuspension in the medium at ∼90% confluence. The membranes used in this study were prepared from transiently transfected HEK293T cells. Briefly, 1 day prior to transfection, ∼10^7 cells were seeded in 15 cm plates, and then the cells were transfected by the addition of a mixture of polyethyleneimine and plasmid DNA (3:1, 60, and 20 µg) in 2 ml of medium (without serum). Of note, the empty pcDNA3.1 vector was used in the Mock-control. After 24 h, the medium was removed and the cells were refreshed with fresh medium. After 72 h, the cells were harvested by suspending in 20 ml of medium, and the supernatant was removed by centrifugation for 10 min at 1,000 rpm. The cell pellet was flash frozen in liquid nitrogen and stored at −80°C until use. Subsequently, the cell pellets were suspended in lysis buffer (30 mM Tirs, pH 7.5, 1 mM MgCl2, 25 U/ml Benzonase), which was homogenized by sonication (3 × 10 bursts) and incubated for 30 min on ice. The membrane fractions overexpressing MAGL/ABHD6/ABHD12 were separated by ultracentrifuge (100,000 g, 30 min, 4 C). The protein concentration was determined with a Qubit protein assay (Invitrogen). The protein samples were quickly frozen in liquid nitrogen and stored at −80 C until use.
The MAGL activity assay is based on the hydrolysis of 2-arachidonoylglycerol-based fluorogenic substrate by MAGL-overexpressing membrane preparations from transiently transfected HEK293T cells. In brief, the reactions were performed in HEPES buffer (40 mM HEPES, pH 7.5, 0.1 mg/ml BSA) in black, flat bottom 96-well plates. […] After the incubation of the inhibitor-protein complex for 30 min, 10 µl of the fluorogenic substrate (AA-HNA, 200 µM) was added and fluorescence was measured in 1 min intervals for 30 min on a plate reader (BioTek). […] All the measurements were performed in N = 2, n = 2 for inhibitors and N = 2, n = 4 for controls with Z′ value ≥0.6. The slope is determined in 5–15 min for all the experiments.

[2] = target: T2, human ABHD6 (Homo sapiens, UniProt Q9BV23); assay: ABHD6 activity assay (AA-HNA fluorogenic substrate); details: for activity at 100 µM / activity: AA-HNA substrate assay, Supplementary Table 2, 100 µM
T2 construct: expressed in transfected cells; host or cells: HEK293T (transient transfection; membrane fraction)
T2 sequence (Q9BV23 1-337): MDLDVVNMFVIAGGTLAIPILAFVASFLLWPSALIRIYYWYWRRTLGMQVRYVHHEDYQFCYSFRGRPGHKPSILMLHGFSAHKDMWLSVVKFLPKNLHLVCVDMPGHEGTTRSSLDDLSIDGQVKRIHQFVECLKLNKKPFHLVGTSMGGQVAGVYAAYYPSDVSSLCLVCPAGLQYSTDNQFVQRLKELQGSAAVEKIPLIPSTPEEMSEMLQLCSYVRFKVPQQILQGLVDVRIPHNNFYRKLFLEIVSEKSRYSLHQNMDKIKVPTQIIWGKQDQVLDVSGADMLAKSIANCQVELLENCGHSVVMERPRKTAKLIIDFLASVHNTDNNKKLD
Protocol: as §1
The MAGL activity assay is based on the hydrolysis of 2-arachidonoylglycerol-based fluorogenic substrate by MAGL-overexpressing membrane preparations from transiently transfected HEK293T cells. In brief, the reactions were performed in HEPES buffer (40 mM HEPES, pH 7.5, 0.1 mg/ml BSA) in black, flat bottom 96-well plates. The final protein concentration of membrane fractions from overexpressing human MAGL HEK293T cells was 12.5 μg/ml 5 µl of inhibitors were added from×40 concentrated DMSO stocks in the 96-well plate containing 145 µl assay buffer, followed by the addition of 40 µl of the protein (12.5 μg/ml). After the incubation of the inhibitor-protein complex for 30 min, 10 µl of the fluorogenic substrate (AA-HNA, 200 µM) was added and fluorescence was measured in 1 min intervals for 30 min on a plate reader (BioTek). Final assay concentrations: 12.5 μg/ml MAGL, […], and […] in the total volume of 200 µl. All the measurements were performed in N = 2, n = 2 for inhibitors and N = 2, n = 4 for controls with Z′ value ≥0.6. The slope is determined in 5–15 min for all the experiments.
The ABHD6 activity assay is based on the same principle as the MAGL activity assay described earlier, but with human ABHD6 overexpressing membrane preparations at a final protein concentration of 50 μg/ml and 200 µM AA-HNA. Other conditions are the same as those of the MAGL activity assay.

[3] = target: T3, human ABHD12 (Homo sapiens, UniProt Q8N2K0); assay: ABHD12 activity by competitive ABPP with FP-TAMRA; details: read-out: ABHD12 Inhibition (%); for activity at 100 µM / activity: 100 µM compound, competitive ABPP with probe FP-TAMRA (250 nM)
T3 construct: expressed in transfected cells; host or cells: HEK293T (transient transfection; membrane fraction)
T3 sequence (Q8N2K0 1-398): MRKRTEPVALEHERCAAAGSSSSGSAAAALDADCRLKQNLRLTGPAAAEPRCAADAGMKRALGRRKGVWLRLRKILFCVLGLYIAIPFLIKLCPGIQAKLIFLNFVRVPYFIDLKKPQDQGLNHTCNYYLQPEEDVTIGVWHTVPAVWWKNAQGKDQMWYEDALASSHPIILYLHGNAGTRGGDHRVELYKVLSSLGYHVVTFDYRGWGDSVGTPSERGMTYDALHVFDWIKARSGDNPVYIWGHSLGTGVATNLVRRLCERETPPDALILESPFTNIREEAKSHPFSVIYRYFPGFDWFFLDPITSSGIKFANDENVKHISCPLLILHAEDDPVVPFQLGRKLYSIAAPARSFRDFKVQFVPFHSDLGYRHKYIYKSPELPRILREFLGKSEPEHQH
Protocol: as §1
The ABHD12 activity assay is based on competitive activity-based protein profiling (ABPP) with human ABHD12 overexpressing membrane fractions. Briefly, the membrane proteome (1 mg/ml, 20 µl) was incubated at room temperature with 0.5 µl DMSO (vehicle) or inhibitor for 30 min. Subsequently, the samples were treated with the activity-based probe FP-TAMRA (250 nM, final concentration) for 20 min. The reactions were then quenched by 10 µl sample buffer (×4) (final concentrations: 60 mM Tris, pH 6.8, 2% (w/v) SDS, 10% (v/v) glycerol, 5% (v/v) β-mercaptoethanol, 0.01% (v/v) bromophenol blue). The samples were directly loaded and resolved on SDS-PAGE gel (10% acrylamide), which were then scanned using a ChemiDoc MP system (Cy3 settings, BioRad).

| Compound | activity at 100 µM [1] | activity at 100 µM ([2]; read-out: ABHD6 Inhibition (%)) | activity at 100 µM [3] | further results |
| --- | --- | --- | --- | --- |
| O=C(CCc1ccc(O)cc1)c1c(O)cc(O)cc1O[C@@H]1O[C@H](CO)[C@@H](O)[C@H](O)[C@H]1O [compound 67, Phlorizin] | 75.9% | 116% | 96.7% | – |
| C=C[C@H]1CN2CC[C@H]1C[C@H]2[C@H](O)c1ccnc2ccccc12 [compound 21, Cinchonidine] | 59.3% | 109% | 77.6% | – |
| O=c1c2ccccc2nc2n1CCc1c-2[nH]c2ccccc12 [compound 71, Rutaecarpine] | 99.2% | 111% | 97% | – |
| COc1c(O)cc2c(c1O)[C@@H]1O[C@H](CO)[C@@H](O)[C@H](O)[C@H]1OC2=O [compound 16, Bergenin] | 124% | 110% | 88% | – |
| COc1ccc(-c2cc(=O)c3c(OC)c(OC)c(OC)c(OC)c3o2)cc1OC [compound 58, Nobiletin] | 83.4% | 100% | 75.6% | – |
| C[C@@H]1O[C@@H](O[C@H]2[C@H](Oc3cc(O)c4c(c3)O[C@H](c3ccc(O)cc3)CC4=O)O[C@H](CO)[C@@H](O)[C@@H]2O)[C@H](O)[C@H](O)[C@H]1O [compound 55, Naringin] | 104% | 104% | 81.4% | – |
| O=c1cccc2n1C[C@@H]1CNC[C@H]2C1 [compound 25, Cytisine] | – | – | – | percent inhibition at 100 µM [1]: 99%; percent inhibition of ABHD6 at 100 µM ([2]; read-out: ABHD6 Inhibition (%)): 104%; percent inhibition at 100 µM [3]: 87.9% |
| COc1ccc([C@@H]2CC(=O)c3c(O)cc(O[C@@H]4O[C@H](CO)[C@@H](O)[C@H](O)[C@H]4O[C@@H]4O[C@@H](C)[C@H](O)[C@@H](O)[C@H]4O)cc3O2)cc1O [compound 57, Neohesperidin] | – | – | – | activity [1]: 86.8%; activity ([2]; read-out: ABHD6 Inhibition (%)): 98.7%; activity [3]: 75.6% |
| C=C1C(=O)[C@]23[C@H](O)[C@H]1CC[C@H]2[C@@]12CO[C@]3(O)[C@@H](O)[C@@H]1C(C)(C)CC[C@@H]2O [compound 60, Oridonin] | 59.6% | 102% | 74.6% | – |
| O=C1CCC[C@@H]2[C@H]3CCCN4CCC[C@@H](CN12)[C@@H]34 [compound 49, (+)-Matrine] | – | – | – | activity [1]: 85.4%; activity ([2]; read-out: ABHD6 Inhibition (%)): 98.3%; activity [3]: 84.4% |
| CC1(C)[C@@H](O)CC[C@]2(C)[C@H]3C(=O)C=C4[C@@H]5C[C@@](C)(C(=O)O)CC[C@]5(C)CC[C@@]4(C)[C@]3(C)CC[C@@H]12 [compound 30, Enoxolone] | 95.9% | 92% | 89.1% | – |
| C=C1CC[C@@H]2[C@](C)(CO)[C@H](O)CC[C@@]2(C)[C@@H]1C/C=C1/C(=O)OC[C@H]1O [compound 8, Andrographolide] | 83.5% | 81.8% | 61.9% | – |
| COc1ccc(-c2oc3c(CC=C(C)C)c(O[C@@H]4O[C@H](CO)[C@@H](O)[C@H](O)[C@H]4O)cc(O)c3c(=O)c2O[C@@H]2O[C@@H](C)[C@H](O)[C@@H](O)[C@H]2O)cc1 [compound 41, Icariin] | 84% | 84.6% | 66% | – |
| O=c1c(O)c(-c2ccc(O)cc2)oc2cc(O)cc(O)c12 [compound 43, Kaempferol] | 32.2% | 84.3% | 30.2% | – |
| O=C(O)CCCc1c[nH]c2ccccc12 [compound 4, 3-Indolebutyric acid] | 85.4% | 97.2% | 77.2% | – |
| C=CCc1ccc(O)c(-c2ccc(O)c(CC=C)c2)c1 [compound 39, Honokiol] | 111% | 83.9% | 104% | – |
| C=C1C(=O)O[C@H]2[C@H]1CC/C(C)=C/CC[C@@]1(C)O[C@@H]21 [compound 65, (-)-Parthenolide] | – | – | – | activity [1]: 87.5%; activity ([2]; read-out: ABHD6 Inhibition (%)): 105%; activity [3]: 92.4% |
| c1coc(CNc2ncnc3[nH]cnc23)c1 [compound 44, Kinetin] | 90.5% | 98.5% | 78.2% | – |
| COc1ccc([C@@H]2CC(=O)c3c(O)cc(O[C@@H]4O[C@H](CO[C@@H]5O[C@@H](C)[C@H](O)[C@@H](O)[C@H]5O)[C@@H](O)[C@H](O)[C@H]4O)cc3O2)cc1O [compound 38, Hesperidin] | – | – | – | activity [1]: 91.4%; activity ([2]; read-out: ABHD6 Inhibition (%)): 94.3%; activity [3]: 76.6% |
| CC1(C)O[C@H]2CC(=O)OC[C@]23[C@H]2CC[C@@]4(C)[C@H](c5ccoc5)OC(=O)[C@H]5O[C@]54[C@]2(C)C(=O)C[C@@H]13 [compound 46, Limonin] | 90.6% | 103% | 83.1% | – |
| C=CCc1ccc(O)c(-c2cc(CC=C)ccc2O)c1 [compound 48, Magnolol] | 72.2% | 101% | 107% | – |
| O=C(c1cccc(-c2ccc(-c3cn(C(=O)N4CCCCC4c4ccccc4)nn3)cc2)c1)N1CCCCC1 (stereo not shown) [KT185, reference compound] | – | – | – | effect on fluorescent signal of AA-HNA hydrolysis by ABHD6 ([2]; 10 µM): blocked |
